Experimental data reported in PMC5529566, “The cryo-EM structure of gastric H^+,K^+-ATPase with bound BYK99, a high-affinity member of K^+-competitive, imidazo[1,2-a]pyridine inhibitors” (Scientific Reports, 2017).

Experiments:
[1] = test system: H^+,K^+-ATPase; design: method as in doi:10.1016/j.tetlet.2006.02.156; conditions: cited from earlier work
[2] = molecular target: H^+,K^+-ATPase D136A (Sus scrofa, UniProt P19156, D137A); test: ATPase assay, D136A mutant
[3] = molecular target: H^+,K^+-ATPase D136L (Sus scrofa, UniProt P19156, D137L); test: ATPase assay, D136L mutant
[4] = molecular target: H^+,K^+-ATPase D137A (Sus scrofa, UniProt P19156, D138A); test: ATPase assay, D137A mutant
[5] = molecular target: H^+,K^+-ATPase D137L (Sus scrofa, UniProt P19156, D138L); test: ATPase assay, D137L mutant
[6] = molecular target: H^+,K^+-ATPase D137F (Sus scrofa, UniProt P19156, D138F); test: ATPase assay, D137F mutant
[7] = molecular target: H^+,K^+-ATPase N138A (Sus scrofa, UniProt P19156, N139A); test: ATPase assay, N138A mutant
[8] = molecular target: H^+,K^+-ATPase L139A (Sus scrofa, UniProt P19156, L140A); test: ATPase assay, L139A mutant
[9] = molecular target: H^+,K^+-ATPase L139I (Sus scrofa, UniProt P19156, L140I); test: ATPase assay, L139I mutant
[10] = molecular target: H^+,K^+-ATPase L139F (Sus scrofa, UniProt P19156, L140F); test: ATPase assay, L139F mutant
[11] = molecular target: H^+,K^+-ATPase Y140A (Sus scrofa, UniProt P19156, Y141A); test: ATPase assay, Y140A mutant
[12] = molecular target: H^+,K^+-ATPase Y140L (Sus scrofa, UniProt P19156, Y141L); test: ATPase assay, Y140L mutant
[13] = molecular target: H^+,K^+-ATPase Y140I (Sus scrofa, UniProt P19156, Y141I); test: ATPase assay, Y140I mutant
[14] = molecular target: H^+,K^+-ATPase Y140F (Sus scrofa, UniProt P19156, Y141F); test: ATPase assay, Y140F mutant
H^+,K^+-ATPase Y140F, sequence (P19156 whole entry Y141F): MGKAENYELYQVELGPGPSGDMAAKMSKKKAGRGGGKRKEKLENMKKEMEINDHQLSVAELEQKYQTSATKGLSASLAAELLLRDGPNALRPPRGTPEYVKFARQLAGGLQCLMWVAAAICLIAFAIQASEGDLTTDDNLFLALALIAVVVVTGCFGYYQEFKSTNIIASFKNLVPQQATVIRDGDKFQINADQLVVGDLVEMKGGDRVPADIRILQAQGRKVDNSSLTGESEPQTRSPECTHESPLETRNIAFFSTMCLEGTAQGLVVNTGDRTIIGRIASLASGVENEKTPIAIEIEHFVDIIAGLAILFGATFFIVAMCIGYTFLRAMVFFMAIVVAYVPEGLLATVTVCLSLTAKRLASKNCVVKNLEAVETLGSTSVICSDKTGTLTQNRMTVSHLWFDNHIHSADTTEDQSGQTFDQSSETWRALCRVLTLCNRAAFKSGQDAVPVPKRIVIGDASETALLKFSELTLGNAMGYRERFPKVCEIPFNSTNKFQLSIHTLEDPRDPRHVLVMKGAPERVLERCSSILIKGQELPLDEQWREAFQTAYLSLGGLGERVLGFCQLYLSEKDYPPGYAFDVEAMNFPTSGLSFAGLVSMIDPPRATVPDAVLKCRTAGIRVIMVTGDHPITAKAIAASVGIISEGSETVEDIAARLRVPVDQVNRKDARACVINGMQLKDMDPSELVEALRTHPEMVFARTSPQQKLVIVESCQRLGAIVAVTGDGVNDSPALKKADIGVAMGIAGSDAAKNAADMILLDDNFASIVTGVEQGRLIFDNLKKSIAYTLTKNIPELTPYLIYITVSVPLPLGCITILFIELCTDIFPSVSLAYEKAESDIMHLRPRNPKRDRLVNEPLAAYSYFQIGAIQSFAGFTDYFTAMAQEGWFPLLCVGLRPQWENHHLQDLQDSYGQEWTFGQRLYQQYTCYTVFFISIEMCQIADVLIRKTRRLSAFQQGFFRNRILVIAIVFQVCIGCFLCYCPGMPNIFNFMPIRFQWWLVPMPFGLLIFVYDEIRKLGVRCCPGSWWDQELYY
H^+,K^+-ATPase Y140F, sequence (P18434 whole entry partner): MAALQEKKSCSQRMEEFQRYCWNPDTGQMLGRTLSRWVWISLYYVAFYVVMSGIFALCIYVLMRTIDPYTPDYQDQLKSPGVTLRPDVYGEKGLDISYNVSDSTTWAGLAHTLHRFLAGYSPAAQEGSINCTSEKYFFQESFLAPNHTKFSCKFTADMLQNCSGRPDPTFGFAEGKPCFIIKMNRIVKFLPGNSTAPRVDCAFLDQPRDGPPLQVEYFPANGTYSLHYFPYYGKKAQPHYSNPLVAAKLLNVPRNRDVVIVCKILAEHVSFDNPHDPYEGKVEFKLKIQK

[15] = molecular target: H^+,K^+-ATPase L141I (Sus scrofa, UniProt P19156, L142I); test: ATPase assay, L141I mutant
H^+,K^+-ATPase L141I, sequence (P19156 whole entry L142I): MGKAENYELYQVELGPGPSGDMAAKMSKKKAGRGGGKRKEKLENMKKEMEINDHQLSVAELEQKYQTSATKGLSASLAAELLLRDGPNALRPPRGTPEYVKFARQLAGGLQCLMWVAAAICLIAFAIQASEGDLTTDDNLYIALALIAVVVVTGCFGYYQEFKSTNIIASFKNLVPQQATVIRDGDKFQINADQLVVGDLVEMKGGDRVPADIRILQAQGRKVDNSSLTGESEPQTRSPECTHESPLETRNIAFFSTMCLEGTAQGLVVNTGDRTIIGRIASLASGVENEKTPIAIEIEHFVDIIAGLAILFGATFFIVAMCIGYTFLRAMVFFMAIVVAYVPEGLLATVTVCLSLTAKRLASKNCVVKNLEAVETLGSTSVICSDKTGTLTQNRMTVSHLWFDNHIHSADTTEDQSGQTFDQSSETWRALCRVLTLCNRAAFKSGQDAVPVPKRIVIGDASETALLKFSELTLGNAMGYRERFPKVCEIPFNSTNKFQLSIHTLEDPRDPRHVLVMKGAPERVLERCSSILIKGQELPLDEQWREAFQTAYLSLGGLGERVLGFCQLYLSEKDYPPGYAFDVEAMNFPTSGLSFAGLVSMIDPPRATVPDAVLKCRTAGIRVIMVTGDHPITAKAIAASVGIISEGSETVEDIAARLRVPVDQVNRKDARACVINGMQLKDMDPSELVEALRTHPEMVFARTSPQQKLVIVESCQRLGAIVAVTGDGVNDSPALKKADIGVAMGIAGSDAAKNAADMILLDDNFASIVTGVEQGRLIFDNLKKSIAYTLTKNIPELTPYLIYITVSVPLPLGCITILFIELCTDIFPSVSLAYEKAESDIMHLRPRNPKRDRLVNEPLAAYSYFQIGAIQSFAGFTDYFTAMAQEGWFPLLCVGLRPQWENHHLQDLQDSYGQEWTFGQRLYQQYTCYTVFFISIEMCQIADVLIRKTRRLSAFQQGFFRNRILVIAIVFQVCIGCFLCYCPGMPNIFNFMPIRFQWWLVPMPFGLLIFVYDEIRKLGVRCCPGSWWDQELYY
H^+,K^+-ATPase L141I, sequence (P18434 whole entry partner): as the sequence (P18434 whole entry partner) above

[16] = molecular target: H^+,K^+-ATPase Q127A (Sus scrofa, UniProt P19156, Q128A); test: ATPase assay, Q127A mutant
[17] = molecular target: H^+,K^+-ATPase N138D (Sus scrofa, UniProt P19156, N139D); test: ATPase assay, N138D mutant
[18] = molecular target: H^+,K^+-ATPase A335G (Sus scrofa, UniProt P19156, A336G); test: ATPase assay, A335G mutant
H^+,K^+-ATPase A335G, sequence (P19156 whole entry A336G): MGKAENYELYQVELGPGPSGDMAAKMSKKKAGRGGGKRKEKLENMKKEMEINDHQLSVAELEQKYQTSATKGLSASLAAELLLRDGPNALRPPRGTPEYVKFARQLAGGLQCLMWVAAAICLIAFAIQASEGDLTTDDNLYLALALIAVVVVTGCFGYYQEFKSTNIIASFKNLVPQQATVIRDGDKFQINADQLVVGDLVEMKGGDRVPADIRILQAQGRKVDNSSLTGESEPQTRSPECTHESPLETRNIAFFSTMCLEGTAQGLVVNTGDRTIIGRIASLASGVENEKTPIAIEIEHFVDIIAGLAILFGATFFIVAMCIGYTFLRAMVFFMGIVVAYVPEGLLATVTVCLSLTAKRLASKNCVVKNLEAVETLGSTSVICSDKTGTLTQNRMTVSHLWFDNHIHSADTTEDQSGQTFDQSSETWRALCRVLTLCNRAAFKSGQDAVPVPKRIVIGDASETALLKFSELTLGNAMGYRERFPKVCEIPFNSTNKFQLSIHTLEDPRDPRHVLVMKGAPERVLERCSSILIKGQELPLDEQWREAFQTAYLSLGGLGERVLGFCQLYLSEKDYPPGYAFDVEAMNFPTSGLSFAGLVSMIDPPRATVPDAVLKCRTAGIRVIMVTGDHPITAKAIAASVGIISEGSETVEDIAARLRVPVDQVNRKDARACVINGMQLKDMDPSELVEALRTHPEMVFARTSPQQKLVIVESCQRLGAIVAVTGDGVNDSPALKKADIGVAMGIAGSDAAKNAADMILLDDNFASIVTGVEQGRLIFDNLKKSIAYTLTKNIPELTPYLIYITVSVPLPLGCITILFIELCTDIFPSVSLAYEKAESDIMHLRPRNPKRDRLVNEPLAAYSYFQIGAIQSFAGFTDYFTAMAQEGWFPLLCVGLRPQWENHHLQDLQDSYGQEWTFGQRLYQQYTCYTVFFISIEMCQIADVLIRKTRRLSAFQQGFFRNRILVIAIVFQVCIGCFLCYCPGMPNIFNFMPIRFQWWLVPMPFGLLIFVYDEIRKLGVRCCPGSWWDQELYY
H^+,K^+-ATPase A335G, sequence (P18434 whole entry partner): as the sequence (P18434 whole entry partner) above

[19] = molecular target: H^+,K^+-ATPase A335V (Sus scrofa, UniProt P19156, A336V); test: ATPase assay, A335V mutant
[20] = molecular target: H^+,K^+-ATPase Y799F (Sus scrofa, UniProt P19156, Y800F); test: ATPase assay, Y799F mutant
[21] = molecular target: H^+,K^+-ATPase L809F (Sus scrofa, UniProt P19156, L810F); test: ATPase assay, L809F mutant
[22] = molecular target: H^+,K^+-ATPase V331F (Sus scrofa, UniProt P19156, V332F); test: ATPase assay, V331F mutant
[23] = molecular target: H^+,K^+-ATPase F332I (Sus scrofa, UniProt P19156, F333I); test: ATPase assay, F332I mutant
[24] = molecular target: H^+,K^+-ATPase M334F (Sus scrofa, UniProt P19156, M335F); test: ATPase assay, M334F mutant
H^+,K^+-ATPase M334F, sequence (P19156 whole entry M335F): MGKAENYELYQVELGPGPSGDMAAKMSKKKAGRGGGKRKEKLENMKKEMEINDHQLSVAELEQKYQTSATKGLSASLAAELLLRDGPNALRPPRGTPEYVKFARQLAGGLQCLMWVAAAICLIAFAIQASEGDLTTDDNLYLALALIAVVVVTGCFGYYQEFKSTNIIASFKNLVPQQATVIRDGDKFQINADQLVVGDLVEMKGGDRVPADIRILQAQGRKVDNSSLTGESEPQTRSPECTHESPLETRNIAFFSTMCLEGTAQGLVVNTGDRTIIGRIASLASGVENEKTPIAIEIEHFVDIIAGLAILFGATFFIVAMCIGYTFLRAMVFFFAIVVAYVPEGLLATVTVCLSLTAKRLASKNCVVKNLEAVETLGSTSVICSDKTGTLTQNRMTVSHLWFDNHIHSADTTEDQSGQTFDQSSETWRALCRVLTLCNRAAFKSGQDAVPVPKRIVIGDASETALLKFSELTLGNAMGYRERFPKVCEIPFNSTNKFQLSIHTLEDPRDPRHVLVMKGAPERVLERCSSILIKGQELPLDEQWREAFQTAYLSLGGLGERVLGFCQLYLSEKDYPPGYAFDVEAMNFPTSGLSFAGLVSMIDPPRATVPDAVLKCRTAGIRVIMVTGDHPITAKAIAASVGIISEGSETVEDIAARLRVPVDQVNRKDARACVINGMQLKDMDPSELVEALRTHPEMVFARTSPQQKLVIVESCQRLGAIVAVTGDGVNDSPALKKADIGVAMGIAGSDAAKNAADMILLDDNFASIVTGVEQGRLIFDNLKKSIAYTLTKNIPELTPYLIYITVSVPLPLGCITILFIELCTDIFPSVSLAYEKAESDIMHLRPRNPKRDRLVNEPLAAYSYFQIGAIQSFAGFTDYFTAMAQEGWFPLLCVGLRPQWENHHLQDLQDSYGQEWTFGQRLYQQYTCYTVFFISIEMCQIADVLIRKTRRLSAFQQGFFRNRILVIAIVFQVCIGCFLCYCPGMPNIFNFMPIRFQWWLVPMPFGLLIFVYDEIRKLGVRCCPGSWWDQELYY
H^+,K^+-ATPase M334F, sequence (P18434 whole entry partner): as the sequence (P18434 whole entry partner) above

[25] = molecular target: H^+,K^+-ATPase V338A (Sus scrofa, UniProt P19156, V339A); test: ATPase assay, V338A mutant
[26] = molecular target: H^+,K^+-ATPase L796F (Sus scrofa, UniProt P19156, L797F); test: ATPase assay, L796F mutant
[27] = molecular target: H^+,K^+-ATPase L800F (Sus scrofa, UniProt P19156, L801F); test: ATPase assay, L800F mutant

Cc1nc2c3c(ccn2c1C)[C@@H](O)[C@H](O)[C@@H](c1ccccc1)N3 [BYK99]
fold higher affinity than SCH28080 [1]: more than 20 fold | Ki [2]: 10 ± 1 nM | -fold increase in K i compared with wild-type ([2]; D136A): 1.7 fold | Ki [3]: 5.3 ± 0.5 nM | -fold increase in K i compared with wild-type ([3]; D136L): 0.9 fold | Ki [4]: 81 ± 13 nM | -fold increase in K i compared with wild-type ([4]; D137A): 14 fold | Ki [5]: 220 ± 40 nM | -fold increase in K i compared with wild-type ([5]; D137L): 38 fold | Ki [6]: 640 ± 110 nM | -fold increase in K i compared with wild-type ([6]; D137F): 110 fold | Ki [7]: 1.4 ± 0.3 nM | -fold increase in K i compared with wild-type ([7]; N138A): 0.2 fold | Ki [8]: 14 ± 2 nM | -fold increase in K i compared with wild-type ([8]; L139A): 2.4 fold | Ki [9]: 2.6 ± 0.2 nM | -fold increase in K i compared with wild-type ([9]; L139I): 0.4 fold | Ki [10]: 18 ± 3 nM | -fold increase in K i compared with wild-type ([10]; L139F): 3.1 fold | Ki [11]: 25 ± 3 nM | -fold increase in K i compared with wild-type ([11]; Y140A): 4.3 fold | Ki [12]: 5.3 ± 0.4 nM | -fold increase in K i compared with wild-type ([12]; Y140L): 0.9 fold | Ki [13]: 4.3 ± 0.5 nM | -fold increase in K i compared with wild-type ([13]; Y140I): 0.7 fold | Ki [14]: 35 ± 6 nM | -fold increase in K i compared with wild-type ([14]; Y140F): 6.0 fold | Ki [15]: 8.4 ± 1.5 nM | -fold increase in K i compared with wild-type ([15]; L141I): 1.4 fold | Ki [16]: 19 ± 1 nM | -fold increase in K i compared with wild-type ([16]; Q127A): 3.3 fold | Ki [17]: 7.7 ± 0.7 nM | -fold increase in K i compared with wild-type ([17]; N138D): 1.3 fold | Ki [18]: 1.2 ± 0.1 nM | -fold increase in K i compared with wild-type ([18]; A335G): 0.2 fold | fold increased affinity ([18]; A335G vs WT): 5 fold | Ki [19]: > 1000 nM | -fold increase in K i compared with wild-type ([19]; A335V): > 170 fold | Ki [20]: 110 ± 10 nM | -fold increase in K i compared with wild-type ([20]; Y799F): 19 fold | Ki [21]: 850 ± 130 nM | -fold increase in K i compared with wild-type ([21]; L809F): 150 fold | Ki [22]: 15 ± 2 nM | -fold increase in K i compared with wild-type ([22]; V331F): 2.3 fold | Ki [23]: 8.9 ± 0.7 nM | -fold increase in K i compared with wild-type ([23]; F332I): 1.5 fold | Ki [24]: 16 ± 4 nM | -fold increase in K i compared with wild-type ([24]; M334F): 2.8 fold | Ki [25]: 50 ± 7 nM | -fold increase in K i compared with wild-type ([25]; V338A): 8.6 fold | Ki [26]: 106 ± 10 nM | -fold increase in K i compared with wild-type ([26]; L796F): 18 fold | Ki [27]: 59 ± 5 nM | -fold increase in K i compared with wild-type ([27]; L800F): 10 fold
